Source: patent US20250108036A1, “COMPOSITIONS FOR REMOVING SENESCENT CELLS AND USES THEREOF” (LIFECEUTIX CO., LTD., priority 2021, published 2025)

What was measured:
SAOS-2 [1] = assay: senescent SAOS-2 tumor size in mice (Example 2-3); format: in vivo, BALB/c nude mice; conditions: doxorubicin 10 mg/kg i.p.; after 10 days LX-112 100 mg/kg oral daily 21 days or repeated doxorubicin
Protocol: After 7-week-old male BALB/c nude mice (purchased from KRIBB Laboratory Animal Resource Center) were adapted to the experimental environment for one week, the mice were randomized into an experimental group and a control group. SAOS-2 (10^6 cells), a human osteosarcoma cancer cell line cultured in the same manner as Example 2-1, was mixed with PBS (purchased from Welgene) and then anesthetized using 2% isoflurane (purchased from Sigma). It was administered subcutaneously to mice. When the size of the tumor reached about […], doxorubicin was mixed at a concentration of 10 mg/kg in a 1:1 solution of distilled water and PBS (pH 7.2) and administered intraperitoneally to induce tumor aging. After 10 days, LX-112 mixed with 0.5% CMC-Na solution (purchased from Sigma) at a concentration of 100 mg/kg was orally administered daily for 21 days, and the size of the tumor was measured. The control group was repeatedly administered a solution mixed with doxorubicin, and then the size of the tumor was measured.

IL6, CXCL1, CXCL10, IL1β [2] = assay: SASP mRNA qRT-PCR in doxorubicin-aged mice (Example 8-6); format: in vivo, C57BL6J mice; conditions: mice, doxorubicin 10 mg/kg i.p.; untreated = 1
Protocol: (§1) After adapting 8-week-old male C57BL6J mice (purchased from KRIBB Laboratory Animal Resource Center) to the experimental environment for 1 week, doxorubicin, an anticancer drug, was administered intraperitoneally at a concentration of 10 mg/kg, and mice that were induced to age for more than 10 days were assigned to an experimental group and a control group. LX-112 was mixed with 0.5% CMC-Na solution (purchased from Sigma) and administered orally at a concentration of 70 mg/kg daily for 21 days. The control group was administered only the solution in the same volume. After drug administration was completed, the method described in each Example below was performed.
Using cDNA synthesized in the same manner as Example 7-6, qRT-PCR was performed and analyzed for aging-related inflammation and fibrosis secretory factors (SASP) such as IL6, CXCL1, CXCL10, and IL1β. […] Table 45 calculates the mRNA amount of each factor after aging was induced by treatment with the anticancer drug as 100% and compared it with the mRNA amount of each factor after treatment with LX-112.

SA-β-gal = SA-β-gal staining of tissues of doxorubicin-aged mice (Example 8-3); format: in vivo, C57BL6J mice; conditions: stained area; mice, doxorubicin 10 mg/kg i.p.; untreated = 1
Protocol: as §1
Mice were sacrificed in the same method in described in Example 7-3, and tissue sections were prepared from the organ tissues of each region. SA-β-gal, an aging marker was stained. […] FIG. 3 is a photographic result of staining of adipose tissue.

[3] = fatigue/weakness tests and body weight in doxorubicin-aged mice (Example 8-7); format: in vivo, C57BL6J mice; conditions: mice
Protocol: as §1
In the same way as Example 7-7, in order to analyze fatigue and weakness that occur as a side effect due to treatment with anticancer drugs in mice, activity evaluation (open field test), endurance evaluation (wire hanging test), and muscle strength and grip strength test (grip strength test) were performed. […] In Table 47, the amount of each evaluation after aging was induced by treatment with the anticancer drug was calculated as 100% and compared it with the amount of each evaluation after treatment with LX-112.

foreskin cells = assay: SA-β-gal staining of doxorubicin-treated foreskin cells (Example 1-1); format: cell-based, human; conditions: proportion of SA-β-gal stained cells; doxorubicin 250 nM 24 h + 7 days
Protocol: Specifically, foreskin cells (source: Chungnam National University College of Medicine) derived from humans were cultured in a designated medium (Iscove's Modified Dulbecco's Medium, source: ATCC; 10% FBS, source: GenDEPOT; 100 U/ml Penicillin & Streptomycin, source: Invitrogen), then treated with doxorubicin (DOX) dissolved in dimethyl sulfoxide (DMSO) at a concentration of 250 nM for 24 hours, and further cultured for 7 days to induce aging. […] To measure the proportion of aged cells, cells treated with doxorubicin and the control group were inoculated into a 24 well plate and stabilized for 24 hours. Then SA-β-gal, a marker related to aging, was stained using a kit (purchased from Cell Signaling Technology), and the proportion of senescent cells having the stained SA-β-gal was measured using an optical microscope.

p16, p21 = assay: p16 and p21 mRNA qRT-PCR in doxorubicin-aged mice (Example 8-2); format: in vivo, C57BL6J mice; conditions: mice, doxorubicin 10 mg/kg i.p.; untreated = 1
Protocol: as §1
The mouse was sacrificed in the same manner as in Example 7-2, RNA was extracted from the organ tissue of each region, and qRT-PCR was performed and analyzed using the synthesized cDNA. […] Table 37 calculates the mRNA amounts of p16 and p21 after aging was induced by treatment with the anticancer drug as 100% and compared them with the mRNA amounts of p16 and p21 after treatment with LX-112.

IL6 = assay: serum IL6 ELISA in doxorubicin-aged mice (Example 8-5); format: in vivo, C57BL6J mice; conditions: mice, doxorubicin 10 mg/kg i.p., untreated = 1
Protocol: as §1
The amount of IL6, an aging-related inflammation secretory factor (SASP), was measured in serum collected from mice in the same manner as in Example 7-5 using an enzyme-linked immunosorbent assay (ELISA Kit, purchased from R&D Systems).

lipofuscin = lipofuscin staining of muscle of doxorubicin-aged mice (Example 8-4); format: in vivo, C57BL6J mice; conditions: stained area; mice, doxorubicin 10 mg/kg i.p.; untreated = 1
Protocol: as §1
Mice were sacrificed in the same manner as in Example 7-4, and tissue sections were prepared from muscle tissue. Lipofuscin, an aging-related degenerative marker was stained.

SAOS-2 [4] = assay: CellTiter-Glo cell viability of senescent SAOS-2 cancer cells (Example 2-2); format: cell-based, human
Protocol: The standard for treating various cancers, including osteosarcoma, is repeated chemotherapy. Accordingly, aging was induced in SAOS-2 in the same manner as in Example 2-1, and then (i) treated again with doxorubicin (DOX→DOX) or (ii) treated with the LX-112 (5 μM) composition (DOX→LX-112).

SAOS-2 [5] = assay: SA-β-gal staining of doxorubicin-treated SAOS-2 cells (Example 2-1); format: cell-based, human; conditions: doxorubicin-induced aging as in Example 1-1
IL6, CXCL1, CXCL10, IL1β [6] = assay: SASP mRNA qRT-PCR in doxorubicin-aged mice (Example 8-6); format: in vivo, C57BL6J mice; conditions: doxorubicin 10 mg/kg i.p., untreated = 1
AST, ALT = assay: serum AST and ALT in doxorubicin-aged mice (Example 8-8); format: in vivo, C57BL6J mice; conditions: mice, doxorubicin 10 mg/kg i.p., untreated = 1
Protocol: as §1
In the same manner as in Example 7-5, the amounts of AST (aspartate aminotransferase) and ALT (alanine transaminase) released into the blood during liver damage were measured by spectrophotometry in the serum collected from mice using a kit (purchased from Sigma) according to the method described in the manual. […] Table 50 calculates the amount of each factor after aging was induced by treatment with the anticancer drug as 100% and compared it with the amount of each factor after treatment with LX-112.

[7] = Table 46, doxorubicin 10 mg/kg i.p.

## COc1cccc2c1C(=O)c1c(O)c3c(c(O)c1C2=O)C[C@@](O)(C(=O)CO)C[C@@H]3O[C@H]1C[C@H](N)[C@H](O)[C@H](C)O1 [DOX, doxorubicin, reference compound]
SAOS-2 [1]
  Tumor Diameter (mm): 15.4 (±1.2) mm
IL6, CXCL1, CXCL10, IL1β [2]
  mRNA (Fold) CXCL10, Liver: 2.6 (±0.9)^ Fold
  mRNA (Fold) IL6, eWAT: 3.2 (±0.3) Fold
SA-β-gal
  SA-β-gal (Fold) Kidney: 4.1 (±1.5) Fold
  SA-β-gal (Fold) Liver: 3.7 (±0.9) Fold
  SA-β-gal (Fold) Lung: 1.3 (±0.4) Fold
  SA-β-gal (Fold) eWAT: 4.2 (±0.9) Fold
[3]; [7]
  Grip Strength Test Strength (N): 0.7 (±0.1) N
  Open Field Test Time in Center (%): 4.9 (±2.2) %
  Wire Hanging Test Time (Sec): 32 (±11) Sec
[3]; doxorubicin 10 mg/kg i.p. without or with LX-112 70 mg/kg oral daily 21 days
  Mean Body Weight (g): 21.3 (±2.6) g
Foreskin cells
  SA-β-gal (%): 90 (±7) %
p16, p21
  p16 mRNA (Fold) Kidney: 1.3 (±0.3) Fold
  p16 mRNA (Fold) Liver: 2.6 (±0.8) Fold
  p16 mRNA (Fold) eWAT: 3.2 (±1.2)^ Fold
  p21 mRNA (Fold) Kidney: 2.6 (±2.1) Fold
  p21 mRNA (Fold) Liver: 3.8 (±2.3) Fold
  p21 mRNA (Fold) eWAT: 3.9 (±3) Fold
IL6
  IL6 (Fold): 11.7 (±0.5) Fold
lipofuscin
  Lipofuscin (Fold) Muscle: 2.2 (±0.5) Fold
SAOS-2 [4]; DOX → DOX (senescent cells treated again with doxorubicin), 3 d
  Survival (%): 72 (±7) %
SAOS-2 [4]; DOX → DOX, 7 d
  Survival (%): 55 (±5) %
SAOS-2 [5]
  SA-β-gal (%): 66 (±5) %
IL6, CXCL1, CXCL10, IL1β [6]
  mRNA (Fold) CXCL1, Liver: 3 (±0.9) Fold
  mRNA (Fold) CXCL1, eWAT: 1.3 (±0.4)^ Fold
  mRNA (Fold) CXCL10, eWAT: 3 (±1.2) Fold
  mRNA (Fold) IL1β, Liver: 1.6 (±0.3) Fold
  mRNA (Fold) IL1β, eWAT: 1.6 (±0.2) Fold
  mRNA (Fold) IL6, Liver: 1.8 (±0.3) Fold
AST, ALT
  ALT (Fold): 1.4 (±0.5) Fold
  AST (Fold): 1.3 (±0.0) Fold
